Test results published in patent publication US20110104161A1, “COMBINATIONS VEGF(R) INHIBITORS AND HEPATOCYTE GROWTH FACTOR (C-MET) INHIBITORS FOR THE TREATMENT OF CANCER” (priority 2008, published 2011).

Legend:
[1] = tested on: U-87 MG human glioblastoma tumor cells; assay: U-87 MG glioblastoma subcutaneous xenograft tumor growth in nude mice (Example 2); format: in vivo
Experimental: U-87 MG human glioblastoma tumor cells (from ATCC) were expanded in culture, harvested and injected subcutaneously into 5-8 week old female nude mice (CD1 NU/NU, Charles River Laboratories) (n=10/group). Treatment began on day 14 (average tumor volume 200 mm^3) with a VEGFR inhibitor, AMG 706, by oral gavage (75 mg/kg/dose/once per day) or an HGF/SF:c-Met inhibitor, AMG 102 by intraperitoneal injection, (3 or 10 μg/dose/twice per week) or a combination of AMG 706 and AMG 102 at the same doses and schedules. Vehicle alone (acid water pH 2.0) and IgG2 isotype control antibody (30 μg/dose/twice per week) served as negative controls for the VEFGFR inhibitor and the HGF/SF:c-Met inhibitor, respectively. Progression of tumor growth was followed by three dimensional caliper measurements and recorded as a function of time. Initial statistical analysis was done by repeated measures analysis of variance (ANOVA), followed by Scheffé post hoc testing for multiple comparisons. […] The combination of AMG 706 and AMG 102 provided no additional benefit compared to AMG 102 monotherapy. Body weights were not negatively impacted by any treatment. Arrow and Rx denote start of dosing.

[2] = tested on: 786-0 human renal cell adenocarcinoma cells; assay: 786-0-S4 renal cell adenocarcinoma subcutaneous xenograft tumor growth in athymic nude mice (Example 7); format: in vivo; details: AMG 706 75 mpk/dose PO, Amgen Compound 3 100 mpk/dose PO, or combination, once daily; p≦0.0322 (AMG 706, combination), p=0.0519 (Amgen Compound 3)
Text: 786-0-S4 (786-0 human renal cell adenocarcinoma cells from ATCC that were passaged in vivo) were expanded in culture, harvested and injected subcutaneously into 9 week old female athymic nude mice (Harlan Sprague Dawley) (n=10/group). Administration of the VEGFR inhibitor, AMG 706 (75 mpk/dose, PO), or the c-Met inhibitor, Amgen Compound 3 (100 mpk/dose, PO), or a combination of AMG 706 (75 mpk/dose, PO) and Amgen Compound 3 (100 mpk/dose, PO) began on day 20 post tumor cell implantation. AMG 706 was subsequently administered once daily by oral gavage (75 mpk/dose) and Amgen Compound 3 was administered once daily by oral gavage (100 mpk/dose) for the duration of the experiment. Progression of tumor growth was assessed by three dimensional caliper measurements and recorded as a function of time. Statistical analysis was performed by repeated measures analysis of variance (RMANOVA) followed by Scheffe post hoc testing for multiple comparisons. Vehicles (Acid water (pH 2.2) and 2% HPMC 1% Tween 80) served as negative controls for AMG 706 and Amgen Compound 3, respectively. […] Body weights were not negatively impacted by any treatment. Arrow and Rx denote the start of dosing.

Compound	tumor growth compared with vehicle control group ([1]; AMG 706 75 mg/kg once per day oral gavage)	tumor growth compared to the vehicle [2]	tumor growth compared to the isotype control group ([1]; AMG 102 3 or 10 μg per dose twice per week i.p., p<0.0005)
CC1(C)CNc2cc(NC(=O)c3cccnc3NCc3ccncc3)ccc21 [AMG 706, N-(2,3-dihydro-3,3-dimethyl-1H-indol-6-yl)-2-[(4-pyridinylmethyl)amino]-3-pyridinecarboxamide]	no significant effect on tumor growth	significantly inhibited tumor growth	
Cc1c(C(=O)Nc2ccc(Oc3ccnc(NC(=O)N4CCOCC4)c3)c(F)c2)c(=O)n(-c2ccccc2)n1C [Amgen Compound 3, N-(4-(4-(1,5-dimethyl-3-oxo-2-phenyl-2,3-dihydro-1H-pyrazole-4-carboxamido)-2-fluorophenoxy)pyridin-2-yl)morpholine-4-carboxamide]		did not significantly inhibit tumor growth	
AMG 102: anti-HGF/SF antibody, identified in US 2005/0118643 and WO 2005/017107 as antibody 2.12.1			significantly inhibited tumor growth
